# Measured values taken from patent US5922707A, “Oxazolidinone antibacterial agent with tricyclic substituents” (Pharmacia & Upjohn Company, priority 1997, dated 1999).
# How the values were obtained:
# Format in all cases: cell-based
# [1] = test system: Streptococcus Pneumoniae UC ® No. 9912; assay: In vitro antimicrobial activity, MIC by agar dilution, S. pneumoniae 9912; conditions: UC9912, Mueller Hinton agar + 1% Supplement C, 35° C., 18 hours, read-out: Minimum inhibitory concentration (MIC), S. p. 9912
# Method: (§1) Antimicrobial activity was tested in vitro using the procedure described in National Committee for Clinical Laboratory Standards. Methods for dilution antimicrobial susceptibility tests for bacteria that grow aerobically--third edition; Approved Standard. NCCLS Document M7-A3. Villanova, Pa.: NCCLS; 1993. Minimum inhibitory concentration (MIC) values were determined by an agar dilution method (1) in which the test medium was Mueller Hinton agar (MHA; Difco Laboratories, Detroit, Mich.) supplemented with 1% Supplement C (Difco). Serial two-fold dilutions of each compound were prepared using 1.0 ml volumes of sterile distilled water. To each 1.0 ml aliquot was added 9.0 ml of molten agar medium. The drug-supplemented agar was mixed, poured into 15×100 mm petri dishes, and allowed to solidify and dry at room temperature prior to inoculation. The test cultures were grown aerobically overnight at 35° C. on MHA; streptococcal strains were grown on Trypticase Soy Blood Agar Base EH (Difco) supplemented with 5% defibrinated sheep blood (BBL, Becton Dickinson Company, Cockeysville, Md.). Colonies were harvested with a sterile swab, and cell suspensions were prepared in Trypticase Soy Broth (TSB; Becton Dickinson Company) to equal the turbidity of a 0.5 McFarland standard. A 1:19 dilution of the suspension was made in TSB; this diluted suspension constituted the inoculum for the assay. The plates containing the drug-supplemented agar were inoculated with a 0.001 ml drop of the cell suspensions using a Steers replicator (Melrose Machine Shop, Woodlyn, Pa.), yielding approximately 10^4 -10^5 cells per spot. The plates were incubated aerobically at 35° C. for 18 hours and the MIC was read as the lowest concentration of drug that inhibited visible growth of the organism. The growth of a single colony was considered to be negative.
# [2] = test system: Staphylococcus aureus UC ® No. 6685; assay: In vitro antimicrobial activity, MIC by agar dilution, S. aureus 6685; conditions: UC6685, Mueller Hinton agar + 1% Supplement C, 35° C., 18 hours, read-out: Minimum inhibitory concentration (MIC), S. a. 6685
# Method: as §1
# [3] = test system: Staphylococcus aureus UC ® No. 9213; assay: In vitro antimicrobial activity, MIC by agar dilution, S. aureus 9213; conditions: UC9213, Mueller Hinton agar + 1% Supplement C, 35° C., 18 hours, read-out: Minimum inhibitory concentration (MIC), S. a. 9213
# Method: as §1
MIC [1] [mg/L],MIC [2] [mg/L],MIC [3] [mg/L],Compound
1,4,8,"COC(=O)N1CCN2c3ccc(N4C[C@H](CNC(C)=O)OC4=O)cc3OCC2C1 (stereo partly drawn) [Example 3, 8-[5-(S)-[(Acetylamino)methyl]-2-oxo-3-oxazolidinyl]-1,2,4a, 5-tetrahydropyrazino[2,1-c] [1, 4]benzoxazine-3(4 H)-carboxylic acid methyl ester]"
2,8,8,"COC(=O)N1CCN2c3ccc(N4C[C@H](CNC(C)=O)OC4=O)cc3OC[C@@H]2C1 [Example 8b, (S)-8-[5-(S)-[(acetylamino)methyl]-2-oxo-3-oxazolidinyl]-1,2,4a, 5-tetrahydropyrazino[2,1-c] [1, 4]benzoxazine-3(4 H)-carboxylic acid methyl ester]"
2,8,16,"CC(=O)NC[C@H]1CN(c2ccc3c(c2)OC[C@H]2CCCCN32)C(=O)O1 [Example 9a, (R)-N-[[[1,2,3,4,4a, 5-hexahydropyridino[2,1-c][1, 4]benzoxazin-8-yl]-2-oxo-5-(S)-oxazolidinyl]methyl]-acetamide]"
0.5,4,4,"COC(=O)N1CCN2c3ccc(N4C[C@H](CNC(C)=O)OC4=O)cc3OC[C@H]2C1 [Example 8a, (R)-8-[5-(S)-[(acetylamino)methyl]-2-oxo-3-oxazolidinyl]-1,2,4a, 5-tetrahydropyrazino[2,1-c] [1, 4]benzoxazine-3(4 H)-carboxylic acid methyl ester]"
2,8,8,"CC(=O)NC[C@H]1CN(c2ccc3c(c2)OCC2CN(C(=O)COCc4ccccc4)CCN32)C(=O)O1 (stereo partly drawn) [Example 2, N-[[3-[1,2,3,4,4a, 5-Hexahydro-3-[(phenylmethoxy)acetyl]pyrazino[2,1-c] [1, 4]benzoxazin-8-yl]-2-oxo-5-(S)-oxazolidinyl]methyl]-acetamide]"
1,4,8,"CC(=O)NC[C@H]1CN(c2ccc3c(c2)OC[C@H]2CN(C(=O)OCc4ccccc4)CCN32)C(=O)O1 [Example 7a, (R)-8-[5-(S)-[(acetylamino)methyl]-2-oxo-3-oxazolidinyl]-1,2,4a, 5-tetrahydropyrazino[2,1-c][1,4]benzoxazin-3(4 H)-carboxylic acid phenylmethyl ester]"
2,4,8,"CC(=O)NC[C@H]1CN(c2ccc3c(c2)OC[C@@H]2CCCCN32)C(=O)O1 [Example 9b, (S)-N-[[[1,2,3,4,4a, 5-hexahydropyridino[2,1-c][1, 4]benzoxazin-8-yl]-2-oxo-5-(S)-oxazolidinyl]methyl]-acetamide]"
2,8,8,"CC(=O)NC[C@H]1CN(c2ccc3c(c2)OC[C@@H]2CN(C(=O)OCc4ccccc4)CCN32)C(=O)O1 [Example 7b, (S)-8-[5-(S)-[(acetylamino)methyl]-2-oxo-3-oxazolidinyl]-1,2,4a, 5-tetrahydropyrazino[2,1-c][1,4]benzoxazin-3(4H)-carboxylic acid phenylmethyl ester]"
1,4,8,"CC(=O)NC[C@H]1CN(c2ccc3c(c2)OCC2CN(C(=O)OCc4ccccc4)CCN32)C(=O)O1 (stereo partly drawn) [Example 1, 8-[5-(S)-[(acetylamino)methyl]-2-oxo-3-oxazolidinyl]-1,2,4a, 5-tetrahydropyrazino[2,1-c] [1, 4]benzoxazine-3(4 H)-carboxylic acid phenylmethyl ester]"
1,4,8,"CC(=O)NC[C@H]1CN(c2ccc3c(c2)OCC2CN(C(=O)c4cc5ccccc5[nH]4)CCN32)C(=O)O1 (stereo partly drawn) [Example 6, N-[[3-[1,2,3,4,4a, 5-hexahydro-3-(1 H-indol-2-ylcarbonyl)pyrazino[2,1-c] [1, 4]benzoxazin-8-yl]-2-oxo-5-(S)-oxazolidinyl]methyl]-acetamide]"
< 0.5,2,4,"CC(=O)NC[C@H]1CN(c2ccc3c(c2)OCC2CN(C(=O)c4ccno4)CCN32)C(=O)O1 (stereo partly drawn) [Example 5, N-[[3-[1,2,3,4,4a, 5-Hexahydro-3-(5-isoxazolylcarbonyl)pyrazino[2,1-c] [1, 4]benzoxazin-8-yl]-2-oxo-5-(S)-oxazolidinyl]methyl]-acetamide]"
1,8,8,CC(=O)NC[C@H]1CN(c2ccc3c(c2)OCC2CN(C(=O)CO)CCN32)C(=O)O1 (stereo partly drawn) [Example 4]
